In patent US20200399250A1, “Pyrimidine Derivatives as Tropomyosin Receptor Kinase A (TRKA) Inhibitors” (BIOMED X GMBH, priority 2017, published 2020):
“Also recorded” adds a separate entry of the source.

Legend:
Type in all cases: binding
TrkA [1] = biological target: T1, TrkA (Homo sapiens, UniProt P04629); assay: KINOMEscan primary screen against TrkA; details: % of control; for % Ctrl. TrkA @10 nM: 10 nM compound; for % Ctrl. TrkA @100 nM: 100 nM compound
Protocol: (§1) Compounds were initially tested in a primary screen against TrkA (at 10 and 100 nM) and AurA (at 100 nM and 1 μM) using the KINOMEscan technology from DiscoverX Corporation, Fremont, Calif., USA (https://www.discoverx.com/services/drug-discovery-development-services/kinase-profiling/kinomescan).
Results were reported as % of control (% Ctrl.=(test compound signal−positive control signal)/(DMSO signal−positive control signal). KINOMEscan is an active site-directed competition binding assay that quantitatively measures the ability of a compound to compete with an immobilized, active-site directed ligand.

AurA [2] = biological target: T2, AurA (Homo sapiens, UniProt O14965); assay: KINOMEscan primary screen against AurA; details: % of control; for % Ctrl. AurA @100 nM: 100 nM compound; for % Ctrl. AurA @1 μM: 1 μM compound
T2 sequence (O14965 1-403): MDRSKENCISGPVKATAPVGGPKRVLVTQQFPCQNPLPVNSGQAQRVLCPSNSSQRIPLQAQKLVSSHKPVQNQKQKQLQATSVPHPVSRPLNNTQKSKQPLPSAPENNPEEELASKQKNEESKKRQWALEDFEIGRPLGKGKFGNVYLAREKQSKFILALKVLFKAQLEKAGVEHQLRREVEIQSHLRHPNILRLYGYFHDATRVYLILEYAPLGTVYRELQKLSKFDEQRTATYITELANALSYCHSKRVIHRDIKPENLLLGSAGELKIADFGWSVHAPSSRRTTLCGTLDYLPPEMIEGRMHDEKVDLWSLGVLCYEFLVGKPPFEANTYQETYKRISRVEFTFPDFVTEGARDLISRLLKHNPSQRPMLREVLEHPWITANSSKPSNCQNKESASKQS
Protocol: as §1

TrkA [3] = biological target: T1, TrkA; assay: KdELECT Kd measurement (KINOMEscan), TrkA; details: for Kd: duplicate 11-point dose-response curves
Protocol: (§2) Kd measurements were done via the KdELECT product service from DiscoverX Corporation (Freemont, Calif., USA) which also employs the KINOMEscan technology. Here, inhibitor binding constants (Kd values) are calculated from duplicate 11-point dose-response curves.

TrkA [4] = assay: KdELECT Kd measurement (KINOMEscan), TrkA; details: for ΔpKd: TrkA pKd versus AurA pKd
Protocol: as §2

AurA [5] = biological target: T2, AurA; assay: KdELECT Kd measurement (KINOMEscan), AurA; details: for Kd: duplicate 11-point dose-response curves
Protocol: as §2

panel of 97 kinases = assay: Selectivity profiling, scanEDGE kinase panel (KINOMEscan); details: 100 nM, cut-off <35% ctrl; for # Hits: N = 92 non-mutant kinases; for Selectivity Score: inhibited kinases/tested kinases
Protocol: Selectivity profiling was done over a panel of 97 kinases at 100 nM concentration (scanEDGE assay panel from Discover X, which also uses the KINOMEscan technology, whereat KIT(D816V) and KIT (V559D, T6701) were replaced by TrkB and TrkC). […] The employed profiling panel consisted of the following kinases: ABL1(T3151)-phosphorylated, ABL1-nonphosphorylated, ABL1-phosphorylated, ACVR1B, ADCK3, AKT1, AKT2, ALK, AURKA, AURKB, AXL, BMPR2, BRAF, BRAF (V600E), BTK, CDK11, CDK2, CDK3, CDK7, CDK9, CHEK1, CSF1R, CSNK1D, CSNK1G2, DCAMKL1, DYRK1B, EGFR, EGFR (L858R), EPHA2, ERBB2, ERBB4, ERK1, FAK, FGFR2, FGFR3, FLT3, GSK3B, IGF1R, IKK-alpha, IKK-beta, INSR, JAK2 (JH1domain-catalytic), JAK3 (JH1domain-catalytic), JNK1, JNK2, JNK3, KIT, LKB1, MAP3K4, MAPKAPK2, MARK3, MEK1, MEK2, MET, MKNK1, MKNK2, MLK1, p38-alpha, p38-beta, PAK1, PAK2, PAK4, PCTK1, PDGFRA, PDGFRB, PDPK1, PIK3C2B, PIK3CA, PIK3CG, PIM1, PIM2, PIM3, PKAC-alpha, PLK1, PLK3, PLK4, PRKCE, RAF1, RET, RIOK2, ROCK2, RSK2 (Kin. Dom. 1-N-terminal), SNARK, SRC, SRPK3, TGFBR1, TIE2, TRKA, TRKB, TRKC, TSSK1B, TYK2 (JH1domain-catalytic), ULK2, VEGFR2, YANK3, ZAP70

T1 sequence (P04629 33-796): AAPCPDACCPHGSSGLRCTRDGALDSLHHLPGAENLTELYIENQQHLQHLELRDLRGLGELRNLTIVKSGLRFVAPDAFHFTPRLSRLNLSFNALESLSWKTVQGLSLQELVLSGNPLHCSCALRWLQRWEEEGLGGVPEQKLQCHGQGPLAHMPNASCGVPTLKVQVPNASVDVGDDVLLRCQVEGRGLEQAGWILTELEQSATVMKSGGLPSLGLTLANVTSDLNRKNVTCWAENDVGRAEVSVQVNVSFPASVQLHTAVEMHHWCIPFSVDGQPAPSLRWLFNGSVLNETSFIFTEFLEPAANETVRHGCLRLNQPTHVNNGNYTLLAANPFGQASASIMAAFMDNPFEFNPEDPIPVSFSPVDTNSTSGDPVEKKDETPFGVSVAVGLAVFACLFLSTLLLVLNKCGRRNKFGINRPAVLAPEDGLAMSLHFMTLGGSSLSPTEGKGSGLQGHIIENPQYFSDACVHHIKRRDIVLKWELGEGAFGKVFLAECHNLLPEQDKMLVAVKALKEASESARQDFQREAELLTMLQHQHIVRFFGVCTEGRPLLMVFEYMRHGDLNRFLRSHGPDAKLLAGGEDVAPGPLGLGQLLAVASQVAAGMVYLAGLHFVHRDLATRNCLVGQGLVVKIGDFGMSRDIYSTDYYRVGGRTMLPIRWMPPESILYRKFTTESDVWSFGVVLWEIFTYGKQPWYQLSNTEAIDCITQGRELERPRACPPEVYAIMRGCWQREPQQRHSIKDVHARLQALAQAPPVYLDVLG

| % Ctrl. TrkA @10 nM (TrkA [1]) [% Ctrl.] | % Ctrl. TrkA @100 nM (TrkA [1]) [% Ctrl.] | % Ctrl. AurA @100 nM (AurA [2]) [% Ctrl.] | % Ctrl. AurA @1 μM (AurA [2]) [% Ctrl.] | TrkA [pKd] (TrkA [3]) | Kd (TrkA [3]) [nM] | ΔpKd (TrkA [4]) | AurA [pKd] (AurA [5]) | Kd (AurA [5]) [nM] | # Hits (panel of 97 kinases) | Selectivity Score (panel of 97 kinases) | ΔΔpKd (selectivity towards AurA compared to tozasertib) (TrkA [4]; compared to tozasertib) | Structure (SMILES) | List of inhibited kinases (panel of 97 kinases) |
| --- | --- | --- | --- | --- | --- | --- | --- | --- | --- | --- | --- | --- | --- |
| 35 | 5.3 | 30 | 1.3 | 8.4 | 3.8 | 1.1 | 7.3 | 53 | 17 | 0.185 |  | Cc1ccc(CSc2nc(Nc3cc(C)[nH]n3)cc(N3CCN(C)CC3)n2)cc1 [b8, N-(5-methyl-1H-pyrazol-3-yl)-2-{[(4-methylphenyl)methyl]sulfanyl}-6-(4-methylpiperazin-1-yl)pyrimidin-4-amine] | TrkA, TrkB, TrkC, ABL1, AurA, and AXL, BTK, FGFR3, FLT3, JAK2, and JAK3, KDR, KIT, PLK4, RET, SRC, and TYK2 |
| 74 | 35 | 63 | 7.4 |  |  |  |  |  |  |  |  | Cc1cc(Nc2cc(N3CCN(C)CC3)nc(SCc3cccc4ccccc34)n2)n[nH]1 [b6, N-(5-methyl-1H-pyrazol-3-yl)-6-(4-methylpiperazin-1-yl)-2-[(naphthalen-1-ylmethyl)sulfanyl]pyrimidin-4-amine] |  |
| 53 | 11 | 46 | 4.5 |  |  |  |  |  |  |  |  | Cc1cc(Nc2cc(N3CCN(C)CC3)nc(SCc3ccc(C)c(C)c3)n2)n[nH]1 [b3, 2-{[(3,4-dimethylphenyl)methyl]sulfanyl}-N-(5-methyl-1H-pyrazol-3-yl)-6-(4-methylpiperazin-1-yl)pyrimidin-4-amine] |  |
| 93 | 31 | 54 | 9.4 |  |  |  |  |  |  |  |  | Cc1ccc(C)c(CSc2nc(Nc3cc(C)[nH]n3)cc(N3CCN(C)CC3)n2)c1 [b2, 2-{[(2,5-dimethylphenyl)methyl]sulfanyl}-N-(5-methyl-1H-pyrazol-3-yl)-6-(4-methylpiperazin-1-yl)pyrimidin-4-amine] |  |
| 58 | 10 | 15 | 0.95 | 7.5 | 30 | 0.1 | 7.4 | 41 |  |  | 1 | Cc1cc(Nc2cc(N3CCN(C)CC3)nc(Sc3ccccc3)n2)n[nH]1 [Reference 2, N-(5-methyl-1H-pyrazol-3-yl)-6-(4-methylpiperazin-1-yl)-2-(phenylsulfanyl)-pyrimidin-4-amine, reference compound] |  |

The remaining lines, values behind:

| Structure (SMILES) | % Ctrl. TrkA @10 nM (TrkA [1]) [% Ctrl.] | % Ctrl. TrkA @100 nM (TrkA [1]) [% Ctrl.] | % Ctrl. AurA @100 nM (AurA [2]) [% Ctrl.] | % Ctrl. AurA @1 μM (AurA [2]) [% Ctrl.] | TrkA [pKd] (TrkA [3]) | Kd (TrkA [3]) [nM] | ΔpKd (TrkA [4]) | AurA [pKd] (AurA [5]) | Kd (AurA [5]) [nM] | # Hits (panel of 97 kinases) | Selectivity Score (panel of 97 kinases) | ΔΔpKd (selectivity towards AurA compared to tozasertib) (TrkA [4]; compared to tozasertib) | List of inhibited kinases (panel of 97 kinases) |
| --- | --- | --- | --- | --- | --- | --- | --- | --- | --- | --- | --- | --- | --- |
| Cc1ccc(C)c(Sc2nc(Nc3cc(C)[nH]n3)cc(N3CCN(C)CC3)n2)c1 [b1, 2-[(2,5-dimethylphenyl)sulfanyl]-N-(5-methyl-1H-pyrazol-3-yl)-6-(4-methylpiperazin-1-yl)pyrimidin-4-amine] | 80 | 11 | 7.3 | 0.5 |  |  |  |  |  |  |  |  |  |
| Cc1ccc(Sc2nc(Nc3cc(C)[nH]n3)cc(N3CCN(C)CC3)n2)c(C)c1 [b9, 2-[(2,4-dimethylphenyl)sulfanyl]-N-(5-methyl-1H-pyrazol-3-yl)-6-(4-methylpiperazin-1-yl)pyrimidin-4-amine] | 77 | 24 | 51 | 3.8 |  |  |  |  |  |  |  |  |  |
| Cc1cccc(Sc2nc(Nc3cc(C)[nH]n3)cc(N3CCN(C)CC3)n2)c1 [b4, N-(5-methyl-1H-pyrazol-3-yl)-2-[(3-methylphenyl)sulfanyl]-6-(4-methylpiperazin-1-yl)pyrimidin-4-amine] | 50 | 6.7 | 2.6 | 0.1 |  |  |  |  |  |  |  |  |  |
| CN1CCN(c2cc(Nc3cc(C(C)(C)C)[nH]n3)nc(Sc3ccccc3)n2)CC1 [a8, N-(5-tert-butyl-1H-pyrazol-3-yl)-6-(4-methylpiperazin-1-yl)-2-(phenylsulfanyl) pyrimidin-4-amine] | 69 | 18 | 100 | 79 |  |  |  |  |  |  |  |  |  |
| Cc1cc(Nc2cc(N3CCN(C)CC3)nc(Sc3ccc(NC(=O)C4CC4)cc3)n2)n[nH]1 [Tozasertib, N-[4-({4-[(5-methyl-1H-pyrazol-3-yl)amino]-6-(4-methylpiperazin-1-yl)pyrimidin-2-yl}sulfanyl)phenyl]cyclopropanecarboxamide, reference compound] | 31 | 5.2 |  |  |  |  |  |  |  | 10 |  |  | TrkA, ABL1, AurA, AurB, AXL,; also recorded: CK1d, FLT3, JAK2, PLK4, RET |
| CN1CCN(c2cc(Nc3cc(C4CCCC4)[nH]n3)nc(Sc3ccccc3)n2)CC1 [a4, N-(5-cyclopentyl-1H-pyrazol-3-yl)-6-(4-methylpiperazin-1-yl)-2-(phenylsulfanyl)pyrimidin-4-amine] | 15 | 0.95 | 49 | 4.5 | 8.8 | 1.5 | 1.8 | 7.0 | 93 | 19 | 0.207 |  | TrkA, TrkB, TrkC, ABL1, AurA,; also recorded: AXL, FGFR2, FGFR3, FLT3, FMS,; also recorded: INSR, JAK2, JAK3, KIT, MAP2K2,; also recorded: MET, PDGFRb, RET, SRC |
| CN1CCN(c2cc(Nc3cc4ccccn4n3)nc(Sc3ccccc3)n2)CC1 [a3, 6-(4-methylpiperazin-1-yl)-2-(phenylsulfanyl)-N-(pyrazolo[1,5-a]pyridin-2-yl)pyrimidin-4-amine] | 93 | 29 | 87 | 76 |  |  |  |  |  |  |  |  |  |
| Cc1cc(Nc2cc(N3CCN(C)CC3)nc(Sc3cccc(C(F)(F)F)c3)n2)n[nH]1 [b5, N-(5-methyl-1H-pyrazol-3-yl)-6-(4-methylpiperazin-1-yl)-2-{[3-(trifluoromethyl)phenyl]sulfanyl}pyrimidin-4-amine] | 90 | 32 | 36 | 2.4 |  |  |  |  |  |  |  |  |  |
